Read-outs that look alike come from different tables or passages of the source.
Experiments:
Human DGKα(9-727) = Human DGKα(9-727) (Homo sapiens (Human), UniProt P23743); assay: biochemical
[1] = test system: human venous whole blood, CD8 positive population (pERK); assay: DGK human whole blood pERK assay; format: cell-based
Method in brief: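 Heparinized whole blood from healthy donors preincubated with compound 1 hour at 37° C. Stimulation used anti-CD3 at 1 μg/mL final plus cross-linking goat anti-mouse IgG for 15 minutes. Flow cytometry scored percentage pERK-positive cells among CD8-positive cells.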

human DGKζ = human DGKζ (Homo sapiens (Human), UniProt Q13574); assay: biochemical; format: biochemical; settings: Table A; liposome (LIPGLO) assay; read-out: DGKζ
human DGKζ, sequence (Q13574 whole entry, looked up): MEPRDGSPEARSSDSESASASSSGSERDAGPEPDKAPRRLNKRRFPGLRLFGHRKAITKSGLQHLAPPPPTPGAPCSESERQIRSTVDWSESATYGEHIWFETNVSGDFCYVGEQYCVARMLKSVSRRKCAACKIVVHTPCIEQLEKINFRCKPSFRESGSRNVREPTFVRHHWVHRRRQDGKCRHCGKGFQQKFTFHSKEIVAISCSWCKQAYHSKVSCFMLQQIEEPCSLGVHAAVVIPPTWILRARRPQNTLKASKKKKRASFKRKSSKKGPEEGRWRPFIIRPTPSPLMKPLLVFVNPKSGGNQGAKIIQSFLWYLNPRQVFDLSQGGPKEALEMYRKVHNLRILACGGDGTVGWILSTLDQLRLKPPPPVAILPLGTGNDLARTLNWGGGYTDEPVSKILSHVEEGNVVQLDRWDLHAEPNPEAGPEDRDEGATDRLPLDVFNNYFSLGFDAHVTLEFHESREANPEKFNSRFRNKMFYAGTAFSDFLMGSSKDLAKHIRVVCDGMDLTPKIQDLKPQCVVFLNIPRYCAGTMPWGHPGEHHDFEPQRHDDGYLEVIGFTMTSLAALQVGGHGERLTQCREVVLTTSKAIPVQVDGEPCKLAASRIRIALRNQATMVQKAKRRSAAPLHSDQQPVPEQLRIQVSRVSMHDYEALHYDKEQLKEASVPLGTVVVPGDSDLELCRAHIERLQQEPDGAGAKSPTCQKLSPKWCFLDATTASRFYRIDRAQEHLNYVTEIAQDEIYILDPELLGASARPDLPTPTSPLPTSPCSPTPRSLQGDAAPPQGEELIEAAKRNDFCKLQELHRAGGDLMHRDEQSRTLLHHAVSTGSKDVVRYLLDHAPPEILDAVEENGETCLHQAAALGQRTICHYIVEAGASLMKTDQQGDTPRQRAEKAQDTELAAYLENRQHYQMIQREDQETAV

[2] = test system: Human venous whole blood (IFN-γ); assay: Human whole blood IFN-γ assay; format: cell-based; settings: human whole blood IFN-γ, read-out: INFg Whole Blood
Description: Assay 10: Human Whole Blood IFN-γ Assay
Human venous whole blood (22.5 μL per well), obtained from healthy donors, was pre-treated with compounds for one hour at 37° C. in a humidified 95% air/5% CO2 incubator. The blood was stimulated with 2.5 μL anti-human CD3 and anti-CD28 mAb at a final concentration of 1 μg/mL each for 24 hours at 37° C. IFN-γ in the supernatants was measured using AlphLISA kit (Cat #AL217).

[3] = liposome (LIPGLO) assay, Table A, read-out: DGKα LIPGLO IC50
[4] = Homo sapiens, CD8 positive, human whole blood, CD8 positive population, anti-CD3 stimulation, top concentration 20 μM, read-out: DGK HWB (human whole blood pERK)
[5] = Table A, liposome (LIPGLO) assay, read-out: DGKα
[6] = human whole blood pERK, read-out: DGK HWB
[7] = Homo sapiens, CD8 positive, human whole blood pERK, read-out: DGK HWB

Human DGKα(9-727), sequence (P23743 whole entry, looked up): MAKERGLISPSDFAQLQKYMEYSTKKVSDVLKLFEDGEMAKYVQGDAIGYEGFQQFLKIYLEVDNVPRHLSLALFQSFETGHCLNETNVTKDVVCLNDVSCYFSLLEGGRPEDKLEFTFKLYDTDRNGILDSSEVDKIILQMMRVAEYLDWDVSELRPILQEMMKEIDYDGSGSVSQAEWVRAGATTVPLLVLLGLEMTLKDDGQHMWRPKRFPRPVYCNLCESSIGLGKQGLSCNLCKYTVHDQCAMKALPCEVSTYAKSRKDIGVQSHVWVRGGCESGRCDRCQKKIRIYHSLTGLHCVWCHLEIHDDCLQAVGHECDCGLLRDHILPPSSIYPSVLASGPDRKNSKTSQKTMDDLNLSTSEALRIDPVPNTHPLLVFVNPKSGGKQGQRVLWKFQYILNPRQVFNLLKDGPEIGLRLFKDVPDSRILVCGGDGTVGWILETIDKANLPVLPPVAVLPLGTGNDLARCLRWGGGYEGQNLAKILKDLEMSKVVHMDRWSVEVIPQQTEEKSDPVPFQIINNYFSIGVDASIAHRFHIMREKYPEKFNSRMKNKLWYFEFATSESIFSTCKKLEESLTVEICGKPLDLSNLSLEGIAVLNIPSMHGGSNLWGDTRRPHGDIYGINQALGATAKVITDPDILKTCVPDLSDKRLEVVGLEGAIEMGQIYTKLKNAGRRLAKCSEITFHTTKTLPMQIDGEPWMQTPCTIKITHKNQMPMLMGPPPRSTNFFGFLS

## CCO[C@H]1CN(c2cc(=O)n(C)c3ccc(C#N)nc23)CC[C@@H]1OCc1ccc(OC(C)C)cn1 [Example 383, 8-((3S,4S)-3-ethoxy-4-((5-isopropoxypyridin-2-yl)methoxy)piperidin-1-yl)-5-methyl-6-oxo-5,6-dihydro-1,5-naphthyridine-2-carbonitrile]
Human DGKα(9-727); [3]
  IC50: 6.1 µM
[1]; [4]
  EC50: 20 µM

## CC1CN(c2c(C#N)c(=O)n(C)c3ccc(C#N)nc23)CCC1N(C)Cc1ccc(F)cc1 (single isomer, unassigned) [Example 325, 8-(4-((4-Fluorobenzyl)(methyl)amino)-3-methylpiperidin-1-yl)-5-methyl-6-oxo-5,6-dihydro-1,5-naphthyridine-2,7-dicarbonitrile]
Human DGKζ
  IC50: 50 µM
Human DGKα(9-727); [5]
  IC50: 49 µM
[1]; [6]
  EC50: 20 µM

## CCO[C@@H]1CN(c2cc(=O)n(C)c3ccc(C#N)nc23)CC[C@H]1Oc1cccc(C(F)(F)F)c1 [Example 264, 8-((3R,4R)-3-ethoxy-4-(3-(trifluoromethyl)phenoxy)piperidin-1-yl)-5-methyl-6-oxo-5,6-dihydro-1,5-naphthyridine-2-carbonitrile]
Human DGKζ
  IC50: 17 µM
Human DGKα(9-727); [5]
  IC50: 4 µM
[2]
  EC50: 6.5 µM

## CO[C@@H]1CN(c2cc(=O)n(C)c3ccc(C#N)nc23)CC[C@H]1Oc1cccc(C(F)(F)F)c1 (single isomer, unassigned) [Example 261, (±)-trans-8-(3-methoxy-4-(3-(trifluoromethyl)phenoxy)piperidin-1-yl)-5-methyl-6-oxo-5,6-dihydro-1,5-naphthyridine-2-carbonitrile]
Human DGKζ
  IC50: 1.4 µM
Human DGKα(9-727); [5]
  IC50: 0.2 µM
[1]; [7]
  EC50: 1.5 µM

## CC1CN(c2c(C#N)c(=O)n(C)c3ccc(C#N)nc23)CCC1N(C)Cc1ccc(F)cc1 (single isomer, unassigned) [Example 322, 8-(4-((4-Fluorobenzyl)(methyl)amino)-3-methylpiperidin-1-yl)-5-methyl-6-oxo-5,6-dihydro-1,5-naphthyridine-2,7-dicarbonitrile]
Human DGKζ
  IC50: 78 µM
Human DGKα(9-727); [5]
  IC50: 6.8 µM
[1]; [7]
  EC50: 20 µM

## COc1ccc(NC2C[C@H](C)N(c3cc(=O)n(C)c4ccc(C#N)nc34)C[C@H]2C)nc1 (single isomer, unassigned) [Example 280]
Human DGKζ
  IC50: 170 µM
Human DGKα(9-727); [5]
  IC50: 0.38 µM
[2]
  EC50: 20 µM

## CC1CN(c2c(C#N)c(=O)n(C)c3ccc(C#N)nc23)CCC1N(C)Cc1ccc(F)cc1 (single isomer, unassigned) [Example 324, 8-(4-((4-Fluorobenzyl)(methyl)amino)-3-methylpiperidin-1-yl)-5-methyl-6-oxo-5,6-dihydro-1,5-naphthyridine-2,7-dicarbonitrile]
Human DGKζ
  IC50: 130 µM
Human DGKα(9-727); [5]
  IC50: 130 µM
[1]; [6]
  EC50: 20 µM

## CO[C@@H]1CN(c2cc(=O)n(C)c3ccc(C#N)nc23)CC[C@H]1Oc1cccc(C(F)(F)F)c1 (single isomer, unassigned) [Example 262, (±)-trans-8-(3-methoxy-4-(3-(trifluoromethyl)phenoxy)piperidin-1-yl)-5-methyl-6-oxo-5,6-dihydro-1,5-naphthyridine-2-carbonitrile]
Human DGKζ
  IC50: 15 µM
Human DGKα(9-727); [5]
  IC50: 3.7 µM

## CC(C)Oc1ccc(O[C@H]2CCN(c3cc(=O)n(C)c4ccc(C#N)nc34)C[C@@H]2O)nc1 (single isomer, unassigned) [Example 267, (±)-trans-8-(3-hydroxy-4-((5-isopropoxypyridin-2-yl)oxy)piperidin-1-yl)-5-methyl-6-oxo-5,6-dihydro-1,5-naphthyridine-2-carbonitrile]
Human DGKζ
  IC50: 10 µM
Human DGKα(9-727); [5]
  IC50: 0.26 µM
[2]; Homo sapiens
  EC50: 17 µM

## CC1CN(c2c(C#N)c(=O)n(C)c3ccc(C#N)nc23)CCC1N(C)Cc1ccc(F)cc1 (single isomer, unassigned) [Example 323, 8-(4-((4-Fluorobenzyl)(methyl)amino)-3-methylpiperidin-1-yl)-5-methyl-6-oxo-5,6-dihydro-1,5-naphthyridine-2,7-dicarbonitrile]
Human DGKζ
  IC50: 18 µM
Human DGKα(9-727); [5]
  IC50: 3.5 µM
[1]; [6]
  EC50: 12 µM

## CC1CN(c2cc(=O)n(C)c3ccc(C#N)nc23)CCC1N(C)C(=O)c1ccc(F)cc1 (single isomer, unassigned) [Example 286, N-(1-(6-Cyano-1-methyl-2-oxo-1,2-dihydro-1,5-naphthyridin-4-yl)-3-methylpiperidin-4-yl)-4-fluoro-N-methylbenzamide]
Human DGKζ
  IC50: 9.2 µM
Human DGKα(9-727); [5]
  IC50: 5.2 µM
[1]; [6]
  EC50: 8.7 µM

## CO[C@H]1CN(c2cc(=O)n(C)c3ccc(C#N)nc23)CC[C@@H]1Oc1ccc(OC(C)C)cn1 (single isomer, unassigned) [Example 270, (±)-trans-8-(4-((5-isopropoxypyridin-2-yl)oxy)-3-methoxypiperidin-1-yl)-5-methyl-6-oxo-5,6-dihydro-1,5-naphthyridine-2-carbonitrile]
Human DGKζ
  IC50: 12 µM
Human DGKα(9-727); [5]
  IC50: 2.4 µM

## CC[C@@H]1CN(c2cc(=O)n(C)c3ccc(C#N)nc23)[C@@H](C)C[C@@H]1Oc1cccc(C(F)(F)F)c1 [Example 308, 8-((2S,4S,5R)-5-ethyl-2-methyl-4-(3-(trifluoromethyl)phenoxy)piperidin-1-yl)-5-methyl-6-oxo-5,6-dihydro-1,5-naphthyridine-2-carbonitrile]
Human DGKζ
  IC50: 3.1 µM
Human DGKα(9-727); [5]
  IC50: 4.3 µM

## CC1CN(c2cc(=O)n(C)c3ccc(C#N)nc23)CCC1N(C)C(=O)c1ccc(F)cc1 (single isomer, unassigned) [Example 287, N-(1-(6-Cyano-1-methyl-2-oxo-1,2-dihydro-1,5-naphthyridin-4-yl)-3-methylpiperidin-4-yl)-4-fluoro-N-methylbenzamide]
Human DGKζ
  IC50: 7.4 µM
Human DGKα(9-727); read-out: DGKα
  IC50: 3.2 µM

## CC1CN(c2cc(=O)n(C)c3ccc(C#N)nc23)CCC1N(C)C(=O)c1ccc(F)cc1 (single isomer, unassigned) [Example 284, N-(1-(6-Cyano-1-methyl-2-oxo-1,2-dihydro-1,5-naphthyridin-4-yl)-3-methylpiperidin-4-yl)-4-fluoro-N-methylbenzamide]
Human DGKζ
  IC50: 120 µM
Human DGKα(9-727); [5]
  IC50: 23 µM
[1]; [6]
  EC50: 20 µM

## Cn1c(=O)cc(N2CC[C@H](Oc3cccc(C(F)(F)F)c3)[C@@H](O)C2)c2nc(C#N)ccc21 (racemic) [Example 259, (±)-trans-8-(3-hydroxy-4-(3-(trifluoromethyl)phenoxy)piperidin-1-yl)-5-methyl-6-oxo-5,6-dihydro-1,5-naphthyridine-2-carbonitrile]
Human DGKζ
  IC50: 150 µM
Human DGKα(9-727); [5]
  IC50: 1.1 µM
[2]; Homo sapiens
  EC50: 20 µM

## Cn1c(=O)nc(N2CC[C@@H](Oc3cccc(C(F)(F)F)c3)[C@H](O)C2)c2nc(Cl)ccc21 (racemic) [Example 271, (+/−)-trans-6-chloro-4-(3-hydroxy-4-(3-(trifluoromethyl)phenoxy)piperidin-1-yl)-1-methylpyrido[3,2-d]pyrimidin-2(1H)-one]
Human DGKζ
  IC50: 28 µM
Human DGKα(9-727); [5]
  IC50: 10 µM
[2]; Homo sapiens
  EC50: 20 µM

## Cn1c(=O)cc(N2CC[C@H](Oc3cccc(C(F)(F)F)c3)[C@@H](O)C2)c2nc(C#N)ccc21 (racemic) [Example 260, (±)-trans-8-(3-hydroxy-4-(3-(trifluoromethyl)phenoxy)piperidin-1-yl)-5-methyl-6-oxo-5,6-dihydro-1,5-naphthyridine-2-carbonitrile]
Human DGKζ
  IC50: 140 µM
Human DGKα(9-727); read-out: DGKα
  IC50: 1.9 µM

## Cn1c(=O)nc(N2CC[C@@H](Oc3cccc(C(F)(F)F)c3)[C@H](O)C2)c2nc(C#N)ccc21 (single isomer, unassigned) [Example 274, (+/−)-trans-4-(3-hydroxy-4-(3-(trifluoromethyl)phenoxy)piperidin-1-yl)-1-methyl-2-oxo-1,2-dihydropyrido[3,2-d]pyrimidine-6-carbonitrile]
Human DGKζ
  IC50: 15 µM
Human DGKα(9-727); [5]
  IC50: 14 µM
[2]; Homo sapiens
  EC50: 8.2 µM

## C[C@H]1CN(c2cc(=O)n(C)c3ccc(C#N)nc23)[C@@H](C)CC1N(C)c1ccc(C(F)(F)F)cc1 (single isomer, unassigned) [Example 319]
Human DGKζ
  IC50: 130 µM
Human DGKα(9-727); [5]
  IC50: 61 µM

## Cn1c(=O)nc(N2CC[C@@H](Oc3cccc(C(F)(F)F)c3)[C@H](O)C2)c2nc(Cl)ccc21 (racemic) [Example 272, (+/−)-trans-6-chloro-4-(3-hydroxy-4-(3-(trifluoromethyl)phenoxy)piperidin-1-yl)-1-methylpyrido[3,2-d]pyrimidin-2(1H)-one]
Human DGKζ
  IC50: 24 µM
Human DGKα(9-727); [5]
  IC50: 19 µM
[2]
  EC50: 16 µM

## CCO[C@H]1CN(c2cc(=O)n(C)c3ccc(C#N)nc23)CC[C@@H]1OCc1ccc(OC(C)C)cn1 (single isomer, unassigned) [Example 384]
Human DGKα(9-727); [3]
  IC50: 0.82 µM
[1]; [4]
  EC50: 4 µM

## C[C@H]1CN(c2cc(=O)n(C)c3ccc(C#N)nc23)[C@@H](C)CC1N(C)c1ccc(C(F)(F)F)cc1 (single isomer, unassigned) [Example 318]
Human DGKα(9-727); [5]
  IC50: 130 µM
[1]; [7]
  EC50: 20 µM

## CO[C@@H]1CN(c2nc(=O)n(C)c3ccc(C#N)nc23)CC[C@H]1Oc1cccc(C(F)(F)F)c1 (single isomer, unassigned) [Example 277]
Human DGKζ
  IC50: 3.9 µM
Human DGKα(9-727); [5]
  IC50: 4.9 µM

## COc1ccc(NC2C[C@H](C)N(c3cc(=O)n(C)c4ccc(C#N)nc34)C[C@H]2C)nc1 (single isomer, unassigned) [Example 281]
Human DGKζ
  IC50: 2.8 µM
Human DGKα(9-727); [5]
  IC50: 2.7 µM
[2]
  EC50: 9.8 µM

— US11964973B2 (priority 2019, dated 2024)
